Target: human FPR2 receptor (Homo sapiens (Human), UniProt P25090)
Experiment: FLIPR Ca+2 response in HEK-Gα16 cells stably expressing the human FPR2 receptor
Type: cell-based
Design: FPR2 (% eff): unit not given here
Details: Table 4; for FPR2 (% eff): value in brackets, given mostly as fraction
Protocol: FLIPR: HEK-Gα16 cells stably expressing the human FPR2 receptor was utilized. Cells were plated into 384-well poly-D-lysine coated plates at a density of 18,000 cells per well one day prior to use. The growth media was DMEM medium supplemented with 10% fetal bovine serum (FBS), 1% antibiotic-antimycotic, 50 μg/ml hygromycin, and 400 μg/ml geneticin. On the day of the experiment, the cells were washed twice with Hank's Balanced Salt Solution supplemented with 20 mM HEPES (HBSS/hepes buffer). The cells were then dye loaded with 2 μM Fluo-4 diluted in the HBSS/Hepes buffer and incubated at 37° C. for 40 minutes. Extracellular dye was removed by washing the cell plates four times prior to placing the plates in the FLIPR (Fluorometric Imaging Plate Reader, Molecular Devices). Ligands were diluted in HBSS/Hepes buffer and prepared in 384-well microplates. Data for Ca^+2 responses were obtained in relative fluorescence units.

Chain of human FPR2 receptor (P25090 whole entry): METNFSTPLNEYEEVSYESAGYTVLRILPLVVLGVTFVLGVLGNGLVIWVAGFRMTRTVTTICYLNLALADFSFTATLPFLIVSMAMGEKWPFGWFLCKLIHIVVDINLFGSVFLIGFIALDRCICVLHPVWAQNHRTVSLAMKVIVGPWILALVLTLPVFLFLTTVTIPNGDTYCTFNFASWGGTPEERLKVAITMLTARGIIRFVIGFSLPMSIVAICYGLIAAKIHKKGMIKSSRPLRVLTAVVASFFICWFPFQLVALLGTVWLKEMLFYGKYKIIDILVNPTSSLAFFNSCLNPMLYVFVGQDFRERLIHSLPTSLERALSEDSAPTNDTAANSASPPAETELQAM

SMILES	FPR2 (% eff)	EC50 [nM]
CCC1(CCc2ccccc2)NC(=O)N(NC(=O)Nc2ccc(Br)cc2)C1=O (stereo not drawn) [Compound 1, 1-(4-bromophenyl)-3-[4-ethyl-2,5-dioxo-4-(2-phenylethyl)imidazolidin-1-yl]urea]	0.96	–
O=C(O)C1C(C(=O)Nc2ccc(I)cc2)C2C=CC1C21CC1 (stereo not drawn) [Compound 11, 3-[(4-iodophenyl)carbamoyl]spiro [bicyclo[2.2.1]heptane-7,1′-cyclopropane]-5-ene-2-carboxylic acid]	1.00	–
CC(=O)c1ccc(NC(=O)Nc2ccc3c(c2)C(=O)N(CCc2c[nH]cn2)C(c2ccc(C#N)cc2)C3)cc1 (stereo not drawn) [Compound 13, 1-(4-acetylphenyl)-3-{3-(4-cyanophenyl)-2-[2-(1H-imidazol-4-yl)ethyl]-1-oxo-1,2,3,4-tetrahydroisoquinolin-7-yl}urea]	0.80	–
O=C(O)C1C(C(=O)Nc2ccc(I)cc2)C2CCC1C21CC1 (stereo not drawn) [Compound 15, 3-[(4-iodophenyl)carbamoyl]spiro [bicyclo[2.2.1]heptane-7,1′-cyclopropane]-2-carboxylic acid]	0.87	–
CSc1ccc(NC(=O)Nc2ccc3c(c2)C(=O)N(CCCN)C(c2ccc(C#N)cc2)C3)cc1 (stereo not drawn) [Compound 16, 1-[2-(3-aminopropyl)-3-(4-cyanophenyl)-1-oxo-1,2,3,4-tetrahydroisoquinolin-7-yl]-3-[4-(methylsulfanyl)phenyl]urea]	0.70	–
CSc1ccc(NC(=O)Nc2ccc3c(c2)C(=O)N(CCc2c[nH]cn2)C(c2ccc(C#N)cc2)C3)cc1 (stereo not drawn) [Compound 17, 1-{3-(4-cyanophenyl)-2-[2-(1H-imidazol-4-yl)ethyl]-1-oxo-1,2,3,4-tetrahydroisoquinolin-7-yl}-3-[4-(methylsulfanyl)phenyl]urea]	0.92	–
CS(=O)(=O)c1ccc(NC(=O)Nc2ccc3c(c2)C(=O)N(CCCN)C(c2ccc(C#N)cc2)C3)cc1 (stereo not drawn) [Compound 18, 1-[2-(3-aminopropyl)-3-(4-cyanophenyl)-1-oxo-1,2,3,4-tetrahydroisoquinolin-7-yl]-3-[4-(methylsulfonyl)phenyl]urea]	0.86	–
CS(=O)(=O)c1ccc(NC(=O)Nc2ccc3c(c2)C(=O)N(CCc2c[nH]cn2)C(c2ccc(C#N)cc2)C3)cc1 (stereo not drawn) [Compound 19, 1-{3-(4-cyanophenyl)-2-[2-(1H-imidazol-4-yl)ethyl]-1-oxo-1,2,3,4-tetrahydroisoquinolin-7-yl}-3-[4-(methylsulfonyl)phenyl]urea]	1.00	–
CSc1ccc(NC(=O)Nc2ccc3c(c2)C(=O)N(CCc2c[nH]cn2)C(c2ccco2)C3)cc1 (stereo not drawn) [Compound 23, 1-{3-(furan-2-yl)-2-[2-(1H-imidazol-4-yl)ethyl]-1-oxo-1,2,3,4-tetrahydroisoquinolin-7-yl}-3-[4-(methylsulfanyl)phenyl]urea]	0.83	–
C[S+]([O-])c1ccc(NC(=O)Nc2ccc3c(c2)C(=O)N(CCc2c[nH]cn2)C(c2ccc(F)cn2)C3)cc1 (stereo not drawn) [Compound 24, 1-{3-(5-fluoropyridin-2-yl)-2-[2-(1H-imidazol-4-yl)ethyl]-1-oxo-1,2,3,4-tetrahydroisoquinolin-7-yl}-3-[4-(methylsulfinyl)phenyl]urea]	0.93	–
CS(=O)(=O)c1ccc(NC(=O)Nc2ccc3c(c2)C(=O)N(CCc2c[nH]cn2)C(c2ccc(F)cn2)C3)cc1 (stereo not drawn) [Compound 25, 1-{3-(5-fluoropyridin-2-yl)-2-[2-(1H-imidazol-4-yl)ethyl]-1-oxo-1,2,3,4-tetrahydroisoquinolin-7-yl}-3-[4-(methylsulfonyl)phenyl]urea]	1.0	–
CSc1ccc(NC(=O)Nc2ccc3c(c2)C(=O)N(CCc2c[nH]cn2)C(c2ccc(Cl)o2)C3)cc1 (stereo not drawn) [Compound 27, 1-{3-(5-chlorofuran-2-yl)-2-[2-(1H-imidazol-4-yl)ethyl]-1-oxo-1,2,3,4-tetrahydroisoquinolin-7-yl}-3-[4-(methylsulfanyl)phenyl]urea]	0.81	–
CSc1ccc(NC(=O)Nc2ccc3c(c2)C(=O)N(CCc2c[nH]cn2)C(c2ccc(Cl)nc2)C3)cc1 (stereo not drawn) [Compound 28, 1-{3-(6-chloropyridin-3-yl)-2-[2-(1H-imidazol-4-yl)ethyl]-1-oxo-1,2,3,4-tetrahydroisoquinolin-7-yl}-3-[4-(methylsulfanyl)phenyl]urea]	0.89	–
CSc1ccc(NC(=O)C2C(C(=O)O)C3CCC2C32CC2)cc1 (stereo not drawn) [Compound 29, 3-{[4-(methylsulfanyl)phenyl]carbamoyl}spiro[bicyclo[2.2.1]heptane-7,1′-cyclopropane]-2-carboxylic acid]	0.96	7
CSc1ccc(NC(=O)Nc2ccc3c(c2)C(=O)N(CCc2c[nH]cn2)C(c2ccc(Cl)cn2)C3)cc1 (stereo not drawn) [Compound 32, 1-{3-(5-chloropyridin-2-yl)-2-[2-(1H-imidazol-4-yl)ethyl]-1-oxo-1,2,3,4-tetrahydroisoquinolin-7-yl}-3-[4-(methylsulfanyl)phenyl]urea]	0.91	–
CS(=O)(=O)c1ccc(NC(=O)Nc2ccc3c(c2)C(=O)N(CCc2c[nH]cn2)C(c2ccc(Cl)cn2)C3)cc1 (stereo not drawn) [Compound 33, 1-{3-(5-chloropyridin-2-yl)-2-[2-(1H-imidazol-4-yl)ethyl]-1-oxo-1,2,3,4-tetrahydroisoquinolin-7-yl}-3-[4-(methylsulfonyl)phenyl]urea]	0.99	–
CSc1ccc(NC(=O)Nc2ccc3c(c2)C(=O)N(CCCN)[C@@H](c2ccc(C#N)cc2)C3)cc1 [Compound 36, (+)1-[(3R)-2-(3-aminopropyl)-3-(4-cyanophenyl)-1-oxo-1,2,3,4-tetrahydroisoquinolin-7-yl]-3-[4-(methylsulfanyl)phenyl]urea]	0.97	–
CSc1ccc(NC(=O)C2C(C(N)=O)C3CCC2C3(C)C)cc1 (stereo not drawn) [Compound 37, 7,7-dimethyl-N-[4-(methylsulfanyl)phenyl]bicyclo [2.2.1]heptane-2,3-dicarboxamide]	0.85	–
NC(=O)C1C(C(=O)Nc2ccc(I)cc2)C2CCC1C21CC1 (stereo not drawn) [Compound 38, N-(4-iodophenyl)spiro[bicyclo[2.2.1]heptane-7,1′-cyclopropane]-2,3-dicarboxamide]	0.95	–
NC(=O)C1C(C(=O)Nc2ccc(I)cc2)C2C=CC1C21CC1 (stereo not drawn) [Compound 39, N-(4-iodophenyl)spiro[bicyclo[2.2.1]heptane-7,1′-cyclopropane]-5-ene-2,3-dicarboxamide]	0.90	–
C[S+]([O-])c1ccc(NC(=O)Nc2ccc3c(c2)C(=O)N(CCCNC(=O)OC(C)(C)C)[C@@H](c2ccc(C#N)cc2)C3)cc1 (stereo partly drawn) [Compound 40, (+) tert-butyl {3-[(3R)-3-(4-cyanophenyl)-7-({[4-(methylsulfinyl)phenyl]carbamoyl}amino)-1-oxo-3,4-dihydroisoquinolin-2(1H)-yl]propyl}carbamate]	0.91	–

The remaining lines, values ahead:

FPR2 (% eff)	EC50 [nM]	SMILES
0.90	–	O=C(O)[C@@H]1C2CCC([C@@H]1C(=O)Nc1ccc(Br)cc1)C21CC1 (relative stereo) [Compound 14, rel-(2R,3S)-3-[(4-bromophenyl)carbamoyl]spiro [bicyclo[2.2.1]heptane-7,1′-cyclopropane]-2-carboxylic acid]
0.98	< 1	O=C(Nc1ccc(Br)cc1)[C@@H]1C2CCC([C@@H]1C(=O)O)C21CC1 (single isomer, unassigned) [Compound 44]
0.91	< 1	NC(=O)C1C(C(=O)Nc2ccc(Br)cc2)C2CCC1C21CC1 (single isomer, unassigned; (-)) [Compound 45, (−) N-(4-bromophenyl)spiro[bicyclo [2.2.1]heptane-7,1′-cyclopropane]-2,3-dicarboxamide]
98	1.4	O=C(O)CNC(=O)[C@H](Cc1c[nH]c2ccccc12)NC(=O)Nc1ccc(Br)cc1 (stereo in doubt) [Compound 150, {[2-{[(4-bromophenyl)carbamoyl]amino}-3-(1H-indol-3-yl)propanoyl]amino}acetic acid]
0.91	–	CCC[C@H](NC(=O)Nc1ccc(Br)cc1)C(=O)NCC(=O)O [Compound 2, {[(2S)-2-{[(4-bromophenyl)carbamoyl]amino}pentanoyl]amino}acetic acid]
0.96	–	CC[C@H](C)[C@H](NC(=O)Nc1ccc(Br)cc1F)C(=O)O [Compound 5, (2S,3S)-2-{[(4-bromo-2-fluorophenyl)carbamoyl]amino}-3-methylpentanoic acid]
0.91	–	CC(C)C[C@H](NC(=O)Nc1ccc(Br)cc1)C(=O)NC(C)(C)C(=O)O [Compound 6, 2-{[(2S)-2-{[(4-bromophenyl)carbamoyl]amino}-4-methylpentanoyl]amino}-2-methylpropanoic acid]
0.77	–	CC(C)C[C@H](NC(=O)Nc1ccc(Br)cc1)C(=O)O [Compound 9, (2S)-2-{[(4-bromophenyl)carbamoyl]amino}-4-methylpentanoic acid]
0.89	–	O=C(Nc1ccc(Br)cc1)NC(Cc1ccccc1)C(=O)NC1CCCCNC1=O (stereo not drawn) [Compound 10, 2-{[(4-bromophenyl)carbamoyl]amino}-N-(2-oxoazepan-3-yl)-3-phenylpropanamide]
0.97	–	O=C(O)C1C(C(=O)Nc2ccc(Br)cc2)C2C=CC1C21CC1 (stereo not drawn) [Compound 12, 3-[(4-bromophenyl)carbamoyl]spiro [bicyclo[2.2.1]heptane-7,1′-cyclopropane]-5-ene-2-carboxylic acid]
0.96	–	NC(=O)C1C(C(=O)Nc2ccc(Br)cc2)C2CCC1C21CC1 (stereo not drawn) [Compound 30, N-(4-bromophenyl)spiro[bicyclo[2.2.1]heptane-7,1′-cyclopropane]-2,3-dicarboxamide]
